The values that follow come from patent US9416142B2, “Griseofulvin derivatives” (PIERRE FABRE MEDICAMENT, priority 2012, dated 2016).

Type in all cases: cell-based
The subject of test [1] is HCC1937 (primary ductal breast carcinoma cell line). Description: Cytotoxic activity, cell proliferation (ATPLite) on HCC1937 line. As to conditions: Homo sapiens, 48 hours after treatment. The protocol: (§1) Culture of Lines and Measurement of Cell Viability:
(§2) The lines NIE115 (ATCC, CRL2263), MDA-MB-231 (ATCC, HTB26) and HSC-1 (Health Science Research Resources Bank, JCRB1015) were cultured in DMEM medium (Dulbecco's modified Eagle medium) supplemented with 2 mM of L-Glutamine (Sigma, G7513) and 10% foetal calf serum (Hyclone, SH30109.03) or 20% for the HSC-1 cells. The HCC-1937 (ATCC, CRL2336) and A549 (ATCC, CCL185) lines were cultured in RPMI medium (Roswell Park Memorial Institute medium) supplemented with 10% foetal calf serum and 2 mM of L-Glutamine. Finally, the SCC114 line (DSMZ, ACC662) was cultured in MEM medium (Minimum Essential Medium Eagle) supplemented with 10% foetal calf serum and 2 mM of L-Glutamine. Initially, in 96-well plates (Perkin Elmer, 6005668), the cells were seeded in their respective culture media with 750 cells per well for NIE115; 1000 cells per well for SCC114 and A549; 2000 cells per well for HCC-1937 and HSC-1; 2500 cells per well for MDA-MB-231. Cascade dilution of each compound was performed in dimethylsulfoxide (DMSO) (Sigma, D8418) using 10 mM stock solutions in 100% DMSO. Each of the dilutions was added to the cells 24 hours after seeding. Under these conditions the final solvent concentration was 0.1% DMSO. Reading of cell proliferation was conducted 72 hours after addition of products with the ATPLite kit (Perkin Elmer, 6016947) and following the manufacturer's directions except in the case of the HCC-1937 line for which this reading was carried out 48 hours after treatment. Analysis of proliferation results was performed by comparing with conditions in which solely the vehicle was added to the cells. The dose-response curves obtained were analysed using Prism 4.03 software (GraphPad Software Inc.) to determine the concentration of each compound allowing 50% inhibition of cell proliferation (IC50). As examples, the cytotoxic properties of some compounds of the invention evaluated on the lines A549 (lung cancer cell line), MDA-MB-231 (mammary adenocarcinoma cell line), NIE115 (mouse brain neuroblastoma cell line), HCC-1937 1 (primary ductal breast carcinoma cell line), HSC-1 (cutaneous squamous carcinoma cell line) and SCC114 (oral squamous carcinoma cell line) are reported in Table 1, as compared with griseofulvin used as control product. The concentration values are expressed in micromolar units (μM).
The activity of the compounds of the invention on the […] line was compared with that of known cytotoxics (Epotilone B and Vinflunine).
(In general: Cellular ATP, detected with luciferase, serves as a proxy for viable cell number.)

Test [2] relates to SCC114 (oral squamous carcinoma cell line). Briefly: Cytotoxic activity, cell proliferation (ATPLite) on SCC114 line. As to conditions: 50% inhibition of cell proliferation, 72 hours after addition. As to the method:
as §1, §2

Test [3] concerns MDA-MB-231 (mammary adenocarcinoma cell line). Briefly: Cytotoxic activity, cell proliferation (ATPLite) on MDA-MB-231 line. The conditions noted are these: Homo sapiens, 50% inhibition of cell proliferation, 72 hours after addition. As to the method:
as §1
as §2, with “Analysis of proliferation results was performed by comparing with conditions in which solely the vehicle was added to the cells. The dose-response curves obtained were analysed using Prism 4.03 software (GraphPad Software Inc.) to determine the concentration of each compound allowing 50% inhibition of cell proliferation (IC50).” left out, “The concentration values are expressed in micromolar units (μM).” left out

Test [4] has as its system N1E-115 (mouse brain neuroblastoma cell line). Description: Cytotoxic activity, cell proliferation (ATPLite) on N1E-115 line. As to conditions: 50% inhibition of cell proliferation, 72 hours after addition. The protocol:
as §1
as §2, with “Analysis of proliferation results was performed by comparing with conditions in which solely the vehicle was added to the cells. The dose-response curves obtained were analysed using Prism 4.03 software (GraphPad Software Inc.) to determine the concentration of each compound allowing 50% inhibition of cell proliferation (IC50).” left out, “The concentration values are expressed in micromolar units (μM).” left out

Test [5] concerns A549 (lung cancer cell line). Briefly: Cytotoxic activity, cell proliferation (ATPLite) on A549 line. The conditions noted are these: Homo sapiens, 50% inhibition of cell proliferation, 72 hours after addition. The protocol:
as §1
as §2, with “Analysis of proliferation results was performed by comparing with conditions in which solely the vehicle was added to the cells. The dose-response curves obtained were analysed using Prism 4.03 software (GraphPad Software Inc.) to determine the concentration of each compound allowing 50% inhibition of cell proliferation (IC50).” left out, “The concentration values are expressed in micromolar units (μM).” left out

Test [6] deals with HSC-1 (cutaneous squamous carcinoma cell line). Description: Cytotoxic activity, cell proliferation (ATPLite) on HSC-1 line. The conditions noted are these: 50% inhibition of cell proliferation, 72 hours after addition. As to the method:
as §1
The lines NIE115 (ATCC, CRL2263), MDA-MB-231 (ATCC, HTB26) and HSC-1 (Health Science Research Resources Bank, JCRB1015) were cultured in DMEM medium (Dulbecco's modified Eagle medium) supplemented with 2 mM of L-Glutamine (Sigma, G7513) and 10% foetal calf serum (Hyclone, SH30109.03) or 20% for the HSC-1 cells. The HCC-1937 (ATCC, CRL2336) and A549 (ATCC, CCL185) lines were cultured in RPMI medium (Roswell Park Memorial Institute medium) supplemented with 10% foetal calf serum and 2 mM of L-Glutamine. […] Reading of cell proliferation was conducted 72 hours after addition of products with the ATPLite kit (Perkin Elmer, 6016947) and following the manufacturer's directions except in the case of the HCC-1937 line for which this reading was carried out 48 hours after treatment. […] As examples, the cytotoxic properties of some compounds of the invention evaluated on the lines A549 (lung cancer cell line), MDA-MB-231 (mammary adenocarcinoma cell line), NIE115 (mouse brain neuroblastoma cell line), HCC-1937 1 (primary ductal breast carcinoma cell line), HSC-1 (cutaneous squamous carcinoma cell line) and SCC114 (oral squamous carcinoma cell line) are reported in Table 1, as compared with griseofulvin used as control product. […]

The mark [7] stands for this setting: Table 2, comparison with known cytotoxics and 2′-SR7 compounds.
[8] abbreviates: Table 1, 50% inhibition of cell proliferation.

The IC50 is the concentration that inhibits the measured activity by half. A lower IC50 goes with greater potency. For `COc1cc(OC)c2c(c1Cl)O[C@]1(C2=O)C(SCCN(C)C)=CC(=O)C[C@H]1C` (racemic) [B, reference compound], the IC50 in test [1] (setting [7]) is > 10 µM.

On to `COc1cc(OC)c2c(c1Cl)O[C@@]1(C=C(S(=O)(=O)c3ccccc3)C(=O)C[C@H]1C)C2=O` [Compound 98, (1′S,6′R)-7-chloro-4,6-dimethoxy-6′-methyl-3′-(phenylsulfonyl)-3H-spiro[benzofuran-2,1′-cyclohex[2]ene]-3,4′-dione], for which the IC50 worked out at 0.41 µM in test [2] and 0.7 µM in test [1] (setting [8]).

With `C/C(=C\c1csc(C)n1)[C@@H]1C[C@@H]2O[C@]2(C)CCC[C@H](C)[C@H](O)[C@@H](C)C(=O)C(C)(C)[C@@H](O)CC(=O)O1` [Epotilone B, reference compound], in test [1] (setting [7]), the IC50 is > 10 µM.

As to `COc1cc(OC)c2c(c1Cl)O[C@@]1(C=C([S+]([O-])c3ccccc3)C(=O)C[C@H]1C)C2=O` (some centres unmarked) [Compound 95], the IC50 worked out at 0.54 µM in test [3]; 1 µM in test [4]; 0.25 µM in test [2]; 0.25 µM in test [5]; 0.43 µM in test [1] (setting [8]).

For `COc1cc(OC)c2c(c1Cl)OC1(C2=O)C(SCc2ccccc2)=CC(=O)C[C@H]1C` (some centres unmarked) [A, reference compound], the IC50 in test [1] (setting [7]) was > 10 µM.

In test [1] (setting [8]), `COc1cc(OC)c2c(c1Cl)O[C@]1(C2=O)C(S(=O)(=O)c2ccccc2)=CC(=O)C[C@H]1C` [Compound 147, (1′R,6′R)-7-chloro-4,6-dimethoxy-6′-methyl-2′-(phenylsulfonyl)-3H-spiro[benzofuran-2,1′-cyclohex[2]ene]-3,4′-dione] yielded an IC50 of 1.6 µM.

With `COc1cc(OC)c2c(c1Cl)O[C@]1(C2=O)C(S(=O)(=O)CCN(C)C)=CC(=O)C[C@H]1C` [Compound 146, (1′R,6′R)-7-chloro-2′-(2-(dimethylamino)ethylsulfonyl)-4,6-dimethoxy-6′-methyl-3H-spiro[benzofuran-2,1′-cyclohex[2]ene]-3,4′-dione], the IC50 in test [1] (setting [8]) came to 5.9 µM.

In test [2], `COc1cc(OC)c2c(c1Cl)O[C@@]1(C=C([S+]([O-])Cc3ccccc3)C(=O)C[C@H]1C)C2=O` (stereo partly drawn) [Compound 97, (1′S,6′R)-3′-(benzylsulfinyl)-7-chloro-4,6-dimethoxy-6′-methyl-3H-spiro[benzofuran-2,1′-cyclohex[2]ene]-3,4′-dione] yielded a concentration for half-maximal inhibition (IC50) of 0.021 µM.

On to `CC[C@]12C=CCN3CC[C@@]4(c5cc([C@@]6(C(=O)OC)C[C@@H]7C[C@@H](C(C)(F)F)CN(Cc8c6[nH]c6ccccc86)C7)c(OC)cc5N(C)[C@H]4[C@@](O)(C(=O)OC)[C@@H]1OC(C)=O)[C@@H]32` [Vinflunine, reference compound], for which the 50% inhibitory concentration (IC50) in test [1] (setting [7]) is > 10 µM.

`COc1cc(OC)c2c(c1Cl)O[C@@]1(C=C(S(=O)(=O)Cc3ccccc3)C(=O)C[C@H]1C)C2=O` [Compound 96, (1′S,6′R)-3′-(benzylsulfonyl)-7-chloro-4,6-dimethoxy-6′-methyl-3H-spiro[benzofuran-2,1′-cyclohex[2]ene]-3,4′-dione] came in with an IC50 in test [1] (setting [8]) of 0.92 µM.

Take `COc1cc(OC)c2c(c1Cl)O[C@]1(C2=O)C(S(=O)(=O)Cc2ccccc2)=CC(=O)C[C@H]1C` [Compound 145, (1′R,6′R)-2′-(benzylsulfonyl)-7-chloro-4,6-dimethoxy-6′-methyl-3H-spiro[benzofuran-2,1′-cyclohex[2]ene]-3,4′-dione]: the 50% inhibitory concentration (IC50) was determined as 2 µM in test [3]; 3 µM in test [4]; 0.385 µM in test [2]; 1.5 µM in test [5]; 1.4 µM in test [1] (setting [8]).

Regarding `COC1=CC(=O)C[C@@H](C)[C@]12Oc1c(Cl)c(OC)cc(OC)c1C2=O` [Griseofulvin], the IC50 is > 10 µM in test [3]; > 10 µM in test [4]; > 10 µM in test [6]; 6.4 µM in test [2]; > 10 µM in test [5]; > 10 µM in test [1] (setting [8]).
